Read-outs that look alike come from different tables or passages of the source.
Assays:
[1] = tested on: HCV genotype 1a H77 strain subgenomic luciferase replicon (H1a-luc) in Huh-7 cells; experiment: HCV luciferase replicon assay, genotype 1a (H1a-luc); assay type: cell-based; conditions: for FS (1a/1b): EC50 against genotype 1a HCV divided by EC50 against genotype 1b, replicon luciferase assay; for EC50: genotype 1a H77 replicon, Huh-7 (H1a-luc), 72 hours, read-out: EC50 Against Relpicon 1a
Description: (§1) General procedure: The HCV luciferase replicon assay measures the ability of a test compound to inhibit HCV replication in cell culture after 3 days of treatment in a human hepatoma cell line (Huh-7) bearing a HCV replicon containing a luciferase-neomycin phosphotransferase fusion gene. The inhibition of HCV replication was measured by quantification of luciferase protein expression. Briefly, Huh-7 cells containing either the HCV genotype 1a H77 strain or genotype 1b Con1 strain subgenomic luciferase replicon (H1a-luc or Zluc, respectively) were grown in DMEM containing glucose, L-glutamine and sodium pyruvate, 10% fetal bovine serum (FBS), 100 IU/mL penicillin, 100 μg/mL streptomycin, 2 mM GlutaMAX, non-essential amino acids and 0.25 (H1a-luc) or 0.5 (Zluc) mg/mL G418. GlutaMAX was obtained from Invitrogen, Corp.; all other media reagents were obtained from Mediatech, Inc. For dose-response testing, the cells were seeded in 96-well plates at 1×10^4 (H1a-luc) or 7.5×10^3 (Zluc) cells/well in a volume of 50 μL and incubated at 37° C./5% CO2. Three hours after plating, 50 μL of ten 5-fold serial dilutions of compound were added, and cell cultures were incubated at 37° C./5% CO2 for 72 hours. In all cases, Huh-7 cells lacking the HCV replicon served as negative control. To assess luciferase expression, the media/compound was removed from the plates and ONE-glo Luciferase assay reagent (Promega) was added to each well. The assay plates were shaken for 3 minutes at room temperature and luciferase activity for each well was measured with a 1 sec read time on the Victor^3V multilabel counter using a 700 nm cut-off filter (Perkin Elmer). EC50 values were calculated from dose response curves from the resulting best-fit equations determined by Microsoft Excel and XLfit 4.1 software.

[2] = tested on: genotype 1b HCV replicon in Zluc cells; experiment: Genotype 1b HCV replicon luciferase assay with 10% FCS or 45% human serum; assay type: cell-based; conditions: EC50 in presence of 45% HS divided by EC50 in presence of 10% FCS
Description: as §1
In Table 1, the values of FS with 45% HS were determined using the genotype 1b HCV replicon luciferase screening assay using Zluc cells, except that activity in the presence of 10% fetal calf serum (FCS) or 45% human serum (HS) was determined in parallel. The fold shift (FS) with 45% HS is the EC50 value in the presence of 45% HS divided by the EC50 value in the presence of 10% FCS. FS (1a/1b) is the EC50 value against genotype 1a HCV divided by the EC50 value against the genotype 1b in the replicon luciferase screening assay.

HCV NS3-NS4A protease 1a = biological target: T1, HCV NS3-NS4A protease 1a (Hepatitis C virus genotype 1a, UniProt P27958); experiment: HCV protease assay (FRET peptide), genotype 1a; assay type: biochemical; conditions: genotype 1a protease; 60 min at 30° C.; read-out: IC50 Against HS3/4A 1a
T1 construct: HCV NS3-NS4A protease, which was produced according to the method of Taremi et al; made in house
Description: (§2) General procedure: Measurement of the inhibitory effect of compounds on HCV protease activity was performed using the HiLyte Fluor™ TR/QXL™ 610 FRET peptide from AnaSpec, Inc. (San Jose, Calif.) under conditions developed in-house using 2-3 nM HCV NS3-NS4A protease, which was produced according to the method of Taremi et al. (Protein Science, 1998, 7, 2143-2149). The compounds were tested at a variety of concentrations in assay buffer containing a final DMSO concentration of 5%. Reactions were allowed to proceed for 60 min at 30° C. and fluorescence measurements were recorded with a PerkinElmer Victor^3 V 1420 Multilabel Counter. The IC50 values were determined from the percent inhibition versus concentration data using a sigmoidal non-linear regression analysis based on four parameters with XLfit 4.1 software.

HCV NS3-NS4A protease 5a = biological target: T2, HCV NS3-NS4A protease 5a (Hepatitis C virus genotype 5a, UniProt O39928); experiment: HCV protease assay (FRET peptide), genotype 5a; assay type: biochemical; conditions: genotype 5a protease; 60 min at 30° C.; read-out: IC50 Against HS3/4A 5a
T2 construct: HCV NS3-NS4A protease, which was produced according to the method of Taremi et al; made in house
Description: as §2

[3] = Cytotoxicity evaluation, Cell Titer 96 AQueous One Solution; assay type: cell-based, human; conditions: human; Zluc cells, cellular viability
Description: (§3) For cytotoxicity evaluation, Zluc cells were treated with compounds as described above and cellular viability was monitored using the Cell Titer 96 AQueous One Solution Cell Proliferation Assay (Promega). Plates were then read at 490 nm in a Victor^3V 1420 multilabel counter (Perkin Elmer) and CC50 concentrations were determined using Microsoft Excel and XLfit 4.1 software.

HCV NS3-NS4A protease 4a = biological target: T3, HCV NS3-NS4A protease 4a (Hepatitis C virus genotype 4a, UniProt O39929); experiment: HCV protease assay (FRET peptide), genotype 4a; assay type: biochemical; conditions: genotype 4a protease; 60 min at 30° C.; read-out: IC50 Against HS3/4A 4a
T3 construct: HCV NS3-NS4A protease, which was produced according to the method of Taremi et al; made in house
Description: as §2

HCV NS3-NS4A protease 6a = biological target: T4, HCV NS3-NS4A protease 6a (Hepatitis C virus genotype 6a, UniProt O39927); experiment: HCV protease assay (FRET peptide), genotype 6a; assay type: biochemical; conditions: genotype 6a protease; 60 min at 30° C.; read-out: IC50 Against HS3/4A 6a
T4 construct: HCV NS3-NS4A protease, which was produced according to the method of Taremi et al; made in house
Description: as §2

[4] = tested on: HCV genotype 1b Con1 strain subgenomic luciferase replicon (Zluc) in Huh-7 cells; experiment: HCV luciferase replicon assay, genotype 1b (Zluc); assay type: cell-based; conditions: genotype 1b Con1 replicon, Huh-7 (Zluc), 72 hours, read-out: EC50 Against Relpicon 1b
Description: as §1

HCV NS3-NS4A protease 3a = biological target: T5, HCV NS3-NS4A protease 3a (Hepatitis C virus genotype 3a, UniProt Q81258); experiment: HCV protease assay (FRET peptide), genotype 3a; assay type: biochemical
T5 construct: HCV NS3-NS4A protease, which was produced according to the method of Taremi et al; made in house
Description: as §2

HCV NS3-NS4A protease 2a = biological target: T6, HCV NS3-NS4A protease 2a (Hepatitis C virus genotype 2a, UniProt Q99IB8); experiment: HCV protease assay (FRET peptide), genotype 2a; assay type: biochemical; conditions: genotype 2a protease; 60 min at 30° C.; read-out: IC50 Against HS3/4A 2a
T6 construct: HCV NS3-NS4A protease, which was produced according to the method of Taremi et al; made in house
Description: as §2

HCV NS3-NS4A protease 1b = biological target: T7, HCV NS3-NS4A protease 1b (Hepatitis C virus genotype 1b, UniProt Q9WMX2); experiment: HCV protease assay (FRET peptide), genotype 1b; assay type: biochemical
T7 construct: HCV NS3-NS4A protease, which was produced according to the method of Taremi et al; made in house
Description: as §2

Zluc cells = experiment: Cytotoxicity evaluation, Cell Titer 96 AQueous One Solution; assay type: cell-based, human; conditions: cellular viability
Description: as §3

T7 sequence (Q9WMX2 1658-1711): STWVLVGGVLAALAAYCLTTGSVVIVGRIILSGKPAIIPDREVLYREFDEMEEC
T7 sequence (Q9WMX2 1027-1208): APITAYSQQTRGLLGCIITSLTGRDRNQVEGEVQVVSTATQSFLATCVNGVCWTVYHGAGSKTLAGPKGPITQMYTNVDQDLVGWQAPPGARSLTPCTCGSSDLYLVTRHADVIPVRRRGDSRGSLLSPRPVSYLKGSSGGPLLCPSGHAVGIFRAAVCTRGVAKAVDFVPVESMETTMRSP
T4 sequence (O39927 1031-1212): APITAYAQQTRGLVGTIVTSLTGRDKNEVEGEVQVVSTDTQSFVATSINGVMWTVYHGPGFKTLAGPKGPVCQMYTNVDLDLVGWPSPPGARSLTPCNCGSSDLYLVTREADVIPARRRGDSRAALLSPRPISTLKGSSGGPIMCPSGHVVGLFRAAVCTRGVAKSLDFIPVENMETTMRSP
T4 sequence (O39927 1662-1715): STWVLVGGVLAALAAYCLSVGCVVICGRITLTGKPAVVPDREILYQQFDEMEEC
T2 sequence (O39928 1659-1712): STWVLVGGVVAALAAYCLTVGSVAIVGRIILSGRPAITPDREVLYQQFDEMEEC
T2 sequence (O39928 1028-1209): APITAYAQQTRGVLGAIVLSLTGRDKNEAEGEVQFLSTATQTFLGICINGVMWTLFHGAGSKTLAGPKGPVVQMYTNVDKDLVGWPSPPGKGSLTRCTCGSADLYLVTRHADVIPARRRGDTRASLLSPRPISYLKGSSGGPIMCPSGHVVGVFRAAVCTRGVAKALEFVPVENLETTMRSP
T1 sequence (P27958 1027-1208): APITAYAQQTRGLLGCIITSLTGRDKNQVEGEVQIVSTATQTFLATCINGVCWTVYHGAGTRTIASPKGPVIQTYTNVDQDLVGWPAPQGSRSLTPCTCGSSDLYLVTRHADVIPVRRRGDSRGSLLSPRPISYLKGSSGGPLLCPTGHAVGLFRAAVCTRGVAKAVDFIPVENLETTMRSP
T1 sequence (P27958 1658-1711): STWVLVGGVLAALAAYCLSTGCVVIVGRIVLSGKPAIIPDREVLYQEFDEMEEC
T6 sequence (Q99IB8 1662-1715): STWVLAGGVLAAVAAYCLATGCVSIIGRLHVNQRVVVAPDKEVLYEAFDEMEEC
T6 sequence (Q99IB8 1031-1212): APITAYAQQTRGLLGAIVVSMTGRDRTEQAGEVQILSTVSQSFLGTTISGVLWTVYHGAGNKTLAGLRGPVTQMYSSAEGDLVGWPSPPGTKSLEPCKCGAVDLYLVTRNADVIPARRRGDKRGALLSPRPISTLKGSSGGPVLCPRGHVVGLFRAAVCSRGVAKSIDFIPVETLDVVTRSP
T5 sequence (Q81258 1664-1717): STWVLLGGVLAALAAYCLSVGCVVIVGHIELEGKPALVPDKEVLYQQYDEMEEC
T5 sequence (Q81258 1033-1214): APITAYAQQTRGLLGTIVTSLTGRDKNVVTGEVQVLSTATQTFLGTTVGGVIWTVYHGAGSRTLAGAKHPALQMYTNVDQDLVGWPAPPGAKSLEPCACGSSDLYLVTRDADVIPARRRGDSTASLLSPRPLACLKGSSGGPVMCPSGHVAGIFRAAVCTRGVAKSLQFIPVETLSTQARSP
T3 sequence (O39929 1658-1711): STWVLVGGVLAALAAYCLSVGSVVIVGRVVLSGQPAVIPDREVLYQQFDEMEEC
T3 sequence (O39929 1027-1208): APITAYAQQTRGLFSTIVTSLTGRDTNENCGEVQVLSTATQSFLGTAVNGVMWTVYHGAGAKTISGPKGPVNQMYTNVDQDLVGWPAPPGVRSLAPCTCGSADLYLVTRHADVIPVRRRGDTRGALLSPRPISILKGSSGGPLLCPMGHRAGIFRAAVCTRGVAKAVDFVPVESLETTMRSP

In the case of COc1ccc2c(O[C@H]3CC[C@H]4C(=O)N(C)CCCC/C=C\[C@@H]5C[C@@]5(C(=O)NS(=O)(=O)C5(C)CC5)NC(=O)[C@@H]4C3)cc(-c3nc(C(F)(F)F)cs3)nc2c1C [Compound 17b, (1R,4R,6R,15R,18S)-1-methyl-cyclopropanesulfonic acid-{18-[7-methoxy-8-methyl-2-(4-trifluoromethyl-thiazol-2-yl)-quinolin-4-yloxy]-13-methyl-2,14-dioxo-3,13-diaza-tricyclo[13.4.0.0]nonadec-7-ene-4-carbonyl}-amide, reference compound], the “FS (1a/1b)” value [1] is reported as 6, the EC50 ([1]; Hepatitis C virus) is reported as less than 10 nM and the “FS with 45% HS” value [2] is reported as 80. For the same compound, the IC50 (HCV NS3-NS4A protease 1a) was less than 10 nM, the IC50 (HCV NS3-NS4A protease 5a) was less than 10 nM and the CC50 [3] was greater than 10000 nM. For the same compound, the IC50 (HCV NS3-NS4A protease 4a) was less than 10 nM, the IC50 (HCV NS3-NS4A protease 6a) was less than 10 nM and the EC50 ([4]; Hepatitis C virus) was less than 10 nM. For the same compound, the IC50 (HCV NS3-NS4A protease 3a) was 100 to 1000 nM, the IC50 (HCV NS3-NS4A protease 2a) was less than 10 nM and the IC50 (HCV NS3-NS4A protease 1b) was less than 10 nM.

For “(1R,4R,6R,15R,18S)-1-methyl-cyclopropanesulfonic acid [18-(2,5-diphenyl-thiazol-4-yloxy)-13-methyl-2,14-dioxo-3,13-diaza-tricyclo[13.4.0.0]nonadec-7-ene-4-carbonyl]-amide [Compound D103]”, the “FS (1a/1b)” value [1] was 113, the EC50 [1] was 1000 to 10000 nM and the CC50 (Zluc cells) was greater than 10000 nM. For the same compound, the EC50 [4] was 10 to 100 nM and the IC50 (HCV NS3-NS4A protease 1b; genotype 1b protease, 60 min at 30° C., read-out: IC50 Against HS3/4A 1b) was 10 to 100 nM.

Source: patent US9353100B2, “Macrocyclic serine protease inhibitors, pharmaceutical compositions thereof, and their use for treating HCV infections” (Idenix Pharmaceuticals LLC, priority 2011, dated 2016)
